According to US20120028358A1, “METHOD FOR INCREASING RETROVIRAL INFECTIVITY” (priority 2010, published 2012):
Entries after “also recorded” stand apart in the source; their conditions may differ.

How the values were obtained:
Phoenix cells = experiment: Viral titer of conditioned medium by quantitative RT-PCR (GFP region of viral RNA); assay type: cell-based
Method: Vectors and delivery systems: pBMN-GFP, a retroviral vector that expresses GFP driven by the MMLV's promoter in Phoenix and other cells was purchased from Orbigen, Inc. (San Diego, Calif.). Packaging cells were transfected with pBMN-GFP using FuGENE 6 reagent following manufacture instructions. Stably transfected Phoenix cells were selected by GFP expression using flow cytometry and then used for experiments. For virus propagation, packaging cells were cultured in growth medium for at least 12 hours. Virus was collected with cultured medium, filtered, supplemented with hexadimethrine bromide (polybrene) to a final concentration of 4 μg/ml and applied directly to target cells. The level of viral RNA in collected medium was determined by quantitative PCR using iScript One-Step RT-PCR kit (with SYBR Green, Bio-Rad, 170-8893) using primers for the GFP region of the viral RNA following manufacture instructions.
We first tested the ability of dexamethasone to increase retroviral protein production in Phoenix cells with integrated pro-viruses using GFP as a reporter. […] We then analyzed the Phoenix cells for GFP expression by flow cytometry. […] To determine if this increase in GFP expression correlated with an increase in viral titer in the supernatant, we performed quantitative RT-PCR on the conditioned medium using primers for the GFP region of the viral RNA.

U87MG cells = experiment: Amphotropic MMLV infection of U87MG cells; assay type: cell-based, human; conditions: 1 μmol/L, 72 hours
Method: Cell cultures: Phoenix Retroviral Expression System ecotropic and amphotropic packaging cells were purchased from Orbigen, Inc. (San Diego, Calif.). […] Rat pulmonary microvascular endothelial cells (PMVEC), were obtained from our cell culture core at the University of South Alabama (King J, et al. Structural and functional characteristics of lung macro and microvascular endothelial phenotypes. Microvascular Res. 2004, March, 67(2). 139-151). Human glioblastoma cells (U87MG), and human mammary carcinoma cells (T47D) were obtained from ATCC. All cells were cultured in DMEM, 10% FBS, 2 mmol L-Glutamine and used for experiments at passages 4-9. All cells were grown in humidified incubators at 37° C. in 5% CO2. Cells were harvested by 0.05% trypsin/0.53 mM EDTA digestion, washed, re-suspended in cultured medium and analyzed directly by FACScan in the University of South Alabama Flow Cytometry Core. For cell cycle analysis cellular DNA was stained with […] of propridium iodide for 20 minutes as described elsewhere (48) and then analyzed by FACScan.

Phoenix cells and PMVEC = experiment: Cell growth and survival of packaging and target cells; conditions: packaging or target cells

CC#C[C@]1(O)CC[C@H]2[C@@H]3CCC4=CC(=O)CCC4=C3[C@@H](c3ccc(N(C)C)cc3)C[C@@]21C [mifepristone, 11-beta-(4-dimethylaminophenyl)-17-beta-hydroxy-17-alpha-(1-propynyl)-estra-4,9-dien-3-one]
Effect on enhancing effect of dexamethasone on virus production (Phoenix cells; dexamethasone and mifepristone added to packaging cells at the same time): partially blocks; also recorded: completely inhibited | Viral levels in the medium (Phoenix cells; mifepristone 0-20 μmol, without dexamethasone): no effect | Retroviral infectivity (U87MG cells): increased | Adverse effects on cell growth or survival (Phoenix cells and PMVEC): did not cause any evident adverse effects
